# Results reported in article PMC3246188, “Inhibition of endothelial- and neuronal-type, but not inducible-type, nitric oxide synthase by the oxidized cholesterol metabolite secosterol aldehyde: Implications for vascular and neurodegenerative diseases” (Journal of Clinical Biochemistry and Nutrition, 2011).
# Where two headings read alike, the source gives them in different places.
# Tests used:
# iNOS = target: T1, iNOS (Mus musculus, UniProt P29477); test: NOS activity assay, conversion of L-[14C(U)]-arginine to L-[14C(U)]-citrulline, recombinant iNOS; type: biochemical; conditions: tested 1–100 µM, highest concentration 100 µM
# T1 construct: purchased Sigma Chem. (St. Louis, MO)
# Text: (§1) Secosterol-A and -B were synthesized according to Wentworth et al.([1]) L-Arginine, nicotinamide adenine dinucleotide phosphate reduced form (NADPH), flavin adenine dinucleotide (FAD), flavin mononucleotide (FMN), (6R)-5,6,7,8-tetrahydrobiopterin (BH4), recombinant eNOS (from bovine), iNOS (from mouse macrophages), and Dowex® AG50W-X8 cation-exchange resin (mesh size, 100–200) were all purchased from Sigma Chem. (St. Louis, MO). Ultima Gold XR scintillation liquid was from PerkinElmer (Shelton, CA). Recombinant nNOS (from rat) was obtained from Cayman Chem. All other chemicals were obtained from Wako Pure Chem. Ind., Osaka, Japan.
# (§2) The NOS activities were determined by monitoring the conversion of L-[^14C(U)]-arginine (Moravek, Brea, CA) to L-[^14C(U)]-citrulline as previously described.([28]) Recombinant enzymes of three isoforms of NOS (specific activity: eNOS 0.03, nNOS 2.9, iNOS 0.62 units/mg protein) (10 µl) were added to a reaction mixture (final volume of 100 µl) consisting of 50 mM HEPES buffer (pH 7.4), 1 mM NADPH, 4 µM FAD, 4 µM FMN, 10 µM BH4, 1 mg/L (60 µM) calmodulin (CaM), 2.5 mM CaCl2, 50 µM L-arginine, 0.5 µCi/ml of L-[^14C(U)]-arginine (specific activity: 8.14–11.1 GBq/mmol) and varying concentrations of the test compound. After incubation for 30 min at 37°C, the reactions were terminated by the addition of 0.5 ml of 20 mM HEPES (pH 5.5) containing 2 mM EDTA and 2 mM EGTA. Samples were passed through a 1 ml column of Dowex AG50W-X8 (Na^+-form) to remove unconverted L-[^14C(U)]-arginine. L-[^14C(U)]-Citrulline was eluted twice with 1 ml of distilled water, and the eluted fractions mixed with 10 ml of cocktail (Ultima Gold XR) were quantified using a liquid scintillation counter. A reaction mixture containing L-[^14C(U)]-arginine without the enzyme was incubated as a control to determine background counts. The effects of oxidized cholesterol metabolites on the NOSs activities were examined in the presence and absence of the test compounds at various concentrations, which were prepared in 5% ethanol and a 10 µl aliquot was added into the reaction mixture.
# nNOS = target: T2, nNOS (Rattus norvegicus, UniProt P29476); test: NOS activity assay, conversion of L-[14C(U)]-arginine to L-[14C(U)]-citrulline, recombinant nNOS; type: biochemical; conditions: for Effect on nNOS activity: up to the highest concentration (100 µM); for Pattern of inhibition of nNOS activity: Lineweaver-Burke plot
# T2 construct: purchased Cayman Chem
# Text: as §1, §2
# (§3) Initial rates of citrulline formation were obtained by linear leastsquares data fitting of actual experimental data. Apparent Km and Vmax values at each inhibitor concentration were obtained from nonlinear regression fitting using the Michaelis-Menten equation. Ki and Kiʹ were obtained from the X-axis intercepts of plots of measured Km/Vmax and 1/Vmax vs inhibitor concentration, respectively.
# eNOS = target: T3, eNOS (Bos taurus, UniProt P29473); test: NOS activity assay, conversion of L-[14C(U)]-arginine to L-[14C(U)]-citrulline, recombinant eNOS; type: biochemical, bovine; conditions: for Effect on eNOS activity: up to the highest concentration (100 µM)
# T3 construct: purchased Sigma Chem. (St. Louis, MO)
# T3 sequence (P29473 2-1205 limits assumed): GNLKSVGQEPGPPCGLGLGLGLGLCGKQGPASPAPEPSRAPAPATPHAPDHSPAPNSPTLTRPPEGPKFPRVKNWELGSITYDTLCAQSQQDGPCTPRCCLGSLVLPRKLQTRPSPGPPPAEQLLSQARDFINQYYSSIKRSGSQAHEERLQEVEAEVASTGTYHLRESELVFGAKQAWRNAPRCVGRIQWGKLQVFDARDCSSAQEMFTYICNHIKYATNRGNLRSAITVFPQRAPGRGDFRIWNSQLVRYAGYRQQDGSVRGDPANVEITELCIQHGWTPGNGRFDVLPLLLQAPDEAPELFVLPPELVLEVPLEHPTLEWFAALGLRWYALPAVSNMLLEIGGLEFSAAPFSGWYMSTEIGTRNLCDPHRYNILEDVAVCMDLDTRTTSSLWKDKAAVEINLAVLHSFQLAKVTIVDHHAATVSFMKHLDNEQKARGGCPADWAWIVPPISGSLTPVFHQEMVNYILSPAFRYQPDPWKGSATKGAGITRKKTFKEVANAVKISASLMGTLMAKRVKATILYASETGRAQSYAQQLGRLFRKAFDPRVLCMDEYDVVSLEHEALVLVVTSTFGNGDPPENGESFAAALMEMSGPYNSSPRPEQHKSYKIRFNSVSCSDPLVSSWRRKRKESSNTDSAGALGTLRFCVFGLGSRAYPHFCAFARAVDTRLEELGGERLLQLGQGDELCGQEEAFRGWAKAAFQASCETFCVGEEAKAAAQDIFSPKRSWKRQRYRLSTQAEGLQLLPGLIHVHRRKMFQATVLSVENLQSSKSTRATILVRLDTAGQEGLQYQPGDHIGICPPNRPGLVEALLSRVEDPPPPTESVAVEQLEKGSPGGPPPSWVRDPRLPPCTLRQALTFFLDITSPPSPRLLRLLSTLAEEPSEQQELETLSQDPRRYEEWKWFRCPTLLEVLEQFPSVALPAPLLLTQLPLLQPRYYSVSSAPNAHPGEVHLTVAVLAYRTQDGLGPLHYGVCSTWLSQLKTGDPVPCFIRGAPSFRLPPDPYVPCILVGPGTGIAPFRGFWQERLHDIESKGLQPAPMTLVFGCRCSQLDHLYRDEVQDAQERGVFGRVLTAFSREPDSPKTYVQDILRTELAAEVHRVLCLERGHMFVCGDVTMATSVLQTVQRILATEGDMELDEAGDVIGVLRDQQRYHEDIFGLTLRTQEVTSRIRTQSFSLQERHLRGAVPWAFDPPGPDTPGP
# Text: as §1, §2, §3
# bovine serum albumin = bovine serum albumin (Bos taurus, UniProt P02769); test: Reaction with proteins to form the adduct (preliminary, unpublished data)
# [1] = varying L-arginine, read-out: Ki(app) for the catalytic site
# T2 sequence (P29476 whole entry): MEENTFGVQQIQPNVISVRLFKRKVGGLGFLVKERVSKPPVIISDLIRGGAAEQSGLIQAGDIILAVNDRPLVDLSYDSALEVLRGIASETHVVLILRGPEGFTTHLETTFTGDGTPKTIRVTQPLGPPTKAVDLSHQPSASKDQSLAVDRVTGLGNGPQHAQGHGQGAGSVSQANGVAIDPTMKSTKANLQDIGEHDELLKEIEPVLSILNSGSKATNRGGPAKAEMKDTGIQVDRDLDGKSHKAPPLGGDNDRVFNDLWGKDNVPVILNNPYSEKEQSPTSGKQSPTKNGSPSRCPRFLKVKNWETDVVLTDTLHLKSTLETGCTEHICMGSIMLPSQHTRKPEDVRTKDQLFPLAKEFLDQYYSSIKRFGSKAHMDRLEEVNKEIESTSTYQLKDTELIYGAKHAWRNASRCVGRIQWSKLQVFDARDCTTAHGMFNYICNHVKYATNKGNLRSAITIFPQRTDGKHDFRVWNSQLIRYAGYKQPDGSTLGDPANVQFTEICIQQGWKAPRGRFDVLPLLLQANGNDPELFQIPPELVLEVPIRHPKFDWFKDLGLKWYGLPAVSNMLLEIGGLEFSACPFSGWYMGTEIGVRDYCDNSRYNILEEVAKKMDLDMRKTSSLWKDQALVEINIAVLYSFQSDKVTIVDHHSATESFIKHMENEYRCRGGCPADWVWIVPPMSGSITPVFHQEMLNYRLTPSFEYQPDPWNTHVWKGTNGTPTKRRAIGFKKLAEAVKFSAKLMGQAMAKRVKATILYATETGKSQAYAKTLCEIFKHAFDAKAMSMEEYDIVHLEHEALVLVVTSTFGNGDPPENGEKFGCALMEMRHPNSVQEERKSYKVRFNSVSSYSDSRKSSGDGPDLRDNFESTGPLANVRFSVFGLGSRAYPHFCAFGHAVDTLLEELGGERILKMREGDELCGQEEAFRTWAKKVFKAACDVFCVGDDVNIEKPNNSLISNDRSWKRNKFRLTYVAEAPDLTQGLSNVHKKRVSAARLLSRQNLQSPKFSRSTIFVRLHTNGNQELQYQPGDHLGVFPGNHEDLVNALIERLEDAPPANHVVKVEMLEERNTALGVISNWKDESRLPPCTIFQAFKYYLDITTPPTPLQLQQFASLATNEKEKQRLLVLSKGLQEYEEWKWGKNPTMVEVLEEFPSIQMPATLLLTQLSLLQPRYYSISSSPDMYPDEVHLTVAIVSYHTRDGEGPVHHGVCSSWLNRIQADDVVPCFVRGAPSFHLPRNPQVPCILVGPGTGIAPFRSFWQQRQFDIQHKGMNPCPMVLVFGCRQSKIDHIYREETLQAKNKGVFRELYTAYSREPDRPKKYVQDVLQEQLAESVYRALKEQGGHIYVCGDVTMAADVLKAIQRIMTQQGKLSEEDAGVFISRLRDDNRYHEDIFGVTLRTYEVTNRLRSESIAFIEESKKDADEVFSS
# Chain of bovine serum albumin (P02769 25-607): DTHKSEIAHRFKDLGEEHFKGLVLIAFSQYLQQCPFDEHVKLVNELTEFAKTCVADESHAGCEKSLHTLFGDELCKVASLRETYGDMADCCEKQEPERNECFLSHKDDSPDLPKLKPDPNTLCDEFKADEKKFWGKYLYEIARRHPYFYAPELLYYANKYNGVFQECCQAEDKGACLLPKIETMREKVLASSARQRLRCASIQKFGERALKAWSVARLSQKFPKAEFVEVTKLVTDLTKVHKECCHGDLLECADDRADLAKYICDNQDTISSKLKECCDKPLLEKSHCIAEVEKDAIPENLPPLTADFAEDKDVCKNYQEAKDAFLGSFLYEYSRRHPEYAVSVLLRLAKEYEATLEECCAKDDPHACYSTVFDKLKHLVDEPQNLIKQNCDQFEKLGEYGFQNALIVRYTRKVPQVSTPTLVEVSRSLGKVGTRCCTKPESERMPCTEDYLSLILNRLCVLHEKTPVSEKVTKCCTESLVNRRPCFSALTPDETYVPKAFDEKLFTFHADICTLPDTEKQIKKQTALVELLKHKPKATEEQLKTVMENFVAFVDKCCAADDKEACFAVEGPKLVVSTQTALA
structure (smiles),measurement,setting,value
C[C@H](CCCC(C)(C)O)[C@H]1CC[C@H]2[C@@H]3CC=C4C[C@@H](O)CC[C@]4(C)[C@H]3CC[C@]12C [25-hydroxycholesterol],Effect on iNOS activity,iNOS,do not affect
same,Effect on nNOS activity,nNOS,do not affect
same,Effect on eNOS activity,eNOS,do not affect
CC(C)CCC[C@@H](C)[C@H]1CC[C@H]2[C@@H]3CC=C4C[C@@H](O)CC[C@]4(C)[C@H]3CC[C@]12C [cholesterol],Effect on iNOS activity,iNOS,do not affect
same,Effect on iNOS activity,iNOS; listed as Cholesterol,no inhibitory effects
same,Effect on nNOS activity,nNOS,do not affect
same,Effect on nNOS activity,nNOS; listed as Cholesterol,no inhibitory effects
same,Effect on eNOS activity,eNOS,do not affect
same,Effect on eNOS activity,eNOS; listed as Cholesterol,no inhibitory effects
"CC(C)CCC[C@@H](C)[C@H]1CC[C@H]2[C@@H]3C(=O)C=C4C[C@@H](O)CC[C@]4(C)[C@H]3CC[C@]12C [7-ketocholesterol, 3β-hydroxy-5-cholesten-7-one]",Effect on iNOS activity,iNOS,do not affect
same,Effect on nNOS activity,nNOS,do not affect
same,Effect on eNOS activity,eNOS,do not affect
"CC(C)CCC[C@@H](C)[C@H]1CC[C@H]2[C@@H]3C[C@H]4O[C@]45C[C@@H](O)CC[C@]5(C)[C@H]3CC[C@]12C [5β,6β-epoxycholesterol]",Effect on iNOS activity,iNOS,do not affect
same,Effect on nNOS activity,nNOS,do not affect
same,Effect on eNOS activity,eNOS,do not affect
"CC(C)CCC[C@@H](C)[C@H]1CC[C@H]2[C@@H]3[C@@H](C=O)[C@]4(O)C[C@@H](O)CC[C@]4(C)[C@H]3CC[C@]12C [secosterol-B, 3β-hydroxy-5β-hydroxy-B-norcholestane-6β-carboxaldehyde]",Effect on iNOS activity,iNOS,do not affect
same,Effect on nNOS activity,nNOS,do not affect
same,Effect on eNOS activity,eNOS,do not affect
"CC(C)CCC[C@@H](C)[C@H]1CC[C@H]2[C@H](CC=O)[C@@H]([C@@]3(C)CC[C@H](O)CC3=O)CC[C@]12C [secosterol-A, 3β-hydroxy-5-oxo-5,6-secocholestan-6-al]",Reactivity with proteins to form the adduct,bovine serum albumin,more easily than secosterol-B
same,Effect on iNOS activity,iNOS,did not affect
same,"nNOS activity, % of the activity without secosterol-A","nNOS; 40 µM secosterol-A, 10 µM BH4",23%
same,nNOS activity compared to the activity without secosterol-A,"nNOS; 40 µM secosterol-A, 60 µM CaM",22%
same,Restoration of inhibited nNOS activity by added BH4,"nNOS; 40 µM secosterol-A, 50 and 100 µM BH4",did not restore
same,nNOS activity compared to the activity without secosterol-A,"nNOS; 40 µM secosterol-A, excess CaM 300 µM",63%
same,nNOS activity compared to the activity without secosterol-A,"nNOS; 40 µM secosterol-A, excess CaM 600 µM",86%
same,Vmax(app)ʹ,"nNOS; L-arginine as substrate, in the presence of 40 µM secosterol-A (10000 without inhibitor)",909 µmol·L^−1·30 min^−1
same,IC50,"nNOS; recombinant rat nNOS, 50 µM L-arginine, 30 min at 37°C",22 ± 1 µM
same,Pattern of inhibition of nNOS activity,nNOS; varying CaM,noncompetitive or a mixed-type
same,Ki,"nNOS; varying CaM, read-out: Kiʹ for the allosteric site (CaM-dependent nNOS activity)",30 µM
same,Pattern of inhibition of nNOS activity,nNOS; varying L-arginine,noncompetitive or a mixed-type
same,Ki,nNOS; [1],10 µM
same,Ki,"nNOS; varying L-arginine, read-out: Ki(app)ʹ for the allosteric site",1 µM
same,"eNOS activity, % of the activity without secosterol-A","eNOS; 100 µM secosterol-A, 10 µM BH4",41%
same,Restoration of inhibited eNOS activity by added BH4,"eNOS; 100 µM secosterol-A, 50 and 100 µM BH4",did not restore
same,Restoration of inhibited eNOS activity by excess CaM,"eNOS; 100 µM secosterol-A, CaM 60–600 µM",did not restore
same,Vmax(app)ʹ,"eNOS; L-arginine as substrate, in the presence of 50 µM secosterol-A (1400 without inhibitor)",480 µmol·L^−1·30 min^−1
same,IC50,"eNOS; recombinant bovine eNOS, 50 µM L-arginine, 30 min at 37°C",50 ± 5 µM
same,Ki,eNOS; [1],50 µM
